From patent US20240423953A1, “METHODS AND COMPOSITIONS FOR TARGETING SV2 PROTEINS FOR IMMUNE REGULATION” (THE REGENTS OF THE UNIVERSITY OF CALIFORNIA, priority 2021, published 2024)
“Also recorded” adds a separate entry of the source.

Key:
ST2L [1] = assay: ST2L protein stability in primary MEFs treated with CHX (immunoblot, flow cytometry); assay type: cell-based, mouse
Procedure: (§1) Primary mouse embryonic fibroblast cells (MEFs) were prepared as previously described^35. Briefly, mouse embryos were collected around embryonic day 14. Visible organs such as the brain, liver, and spleen were removed, and the leftover tissue was quickly minced and incubated in 0.25% trypsin-EDTA for 2 hr at 37° C. Cells were then washed with media and seeded in DMEM with 10% FBS, 1% penicillin/streptomycin and 0.055 mM β-mercaptoethanol. Every three days cells were passaged. Starting at passage 2, cells were used for studies.
Dead cells were routinely excluded with Zombie UV Fixable Viability Kit (BioLegend) or Fixable Aqua Dead Cell Stain (Thermo Fisher Scientific). Lineage-positive cells were excluded by staining for B220 (RA3-6B2), […] (145-2C11), TCRβ (H57-597), TCRγδ (eBioGL3), Ter119 (Ter119), NK1.1 (PK136), CD11b (M1/70), and CD11c (N418). For surface staining CD45 (30-F11), KLRG1 (2F1), CD25 (PC61.5), CD127 (A7R34), Sca1 (D7), Thy1/CD90.2 (53-2.1), and ST2 (RMST2-2, eBioscience) were used. For intracellular staining, cells were fixed and permeabilized with the Transcription Buffer Set (BD Pharmingen) per manufacturer's instructions followed by staining with anti-GATA3 (TWAJ, eBioscience), anti-IL-5 (TRFK5, Biolegend) and anti-IL-13 (eBio13A, eBioscience). Stained cells were used for flow cytometry analysis using a LSRII or Attune NxT (Becton Dickinson, BD) flow cytometer. Data were analyzed using the FlowJo software. Different cell types were identified by the following gating strategies^36,37: lung ILC2s (CD45^+Lin KLRG1^+CD90^+ or CD45^+Lin GATA3^+CD90^+CD25^+), BM ILC2P (CD45^+Lin^− CD127^+CD25^+).
(§2) Protein extracts from cells or tissues were prepared using whole protein lysis buffer (WL buffer) containing 50 mM Tris (pH 8), 0.4M NaCl, 0.5% NP-40, 10% glycerol, 1 mM EDTA, 1 mM DTT, and 1 mM PMSF as described previously^39. To extract proteins from MEFs, cells were washed with PBS once and then lysed with WL buffer on ice for 30 min. Lung or brain tissues from mice that had been euthanized and perfused with cold PBS were directly homogenized in the presence of WL buffer or alternatively, tissues were briefly disrupted in PBS and the insoluble fractions were then lysed in WL buffer for protein extraction. Immunoblot analysis was performed using the following antibodies: anti-ST2L (R3880-2, Abiocode), anti-ST2 (M3880-1, Abiocode), anti-SV2A (M3004-1, Abiocode), anti-Tubulin (M0267-1b, Abiocode).

SV2A protein [2] = target: T1, SV2A protein (Mus musculus, UniProt Q9JIS5); assay: Cell-free protein stability assay (lung or brain protein extracts, immunoblot with anti-SV2A); assay type: biochemical
T1 construct: from tissue; host or cells: lung and brain of C57BL/6 mice
Procedure: Proteins extracts were prepared by incubating WL buffer with brain or lung tissues that had been pre-washed with PBS. […] The reaction mixtures were subsequently incubated at 37° C. for 1 hr, and the reactions were terminated by adding 20 μl of 4×SDS sample buffer followed by denaturing at 95° C. for 5 min. The samples were then analyzed directly by immunoblot analysis.
These two models were tested using the in vitro cell-free protein stability assays. […] We prepared two groups of reaction mixtures by mixing 0.2 μg of brain protein extract from WT mice with an excessive amount of either brain protein extract or lung protein extract prepared from Sv2a^−/− pup.

ST2L [3] = assay: Immunoblot analysis of ST2L in lungs of LEV-treated mice; assay type: in vivo, mouse; conditions: LEV intranasal for 4 hr or daily for three consecutive days (3D), vs PBS
Source text: (§3) Sv2a^+/− mice on C57BL/6 129Sv mixed genetic background^21 were purchased from the Jackson laboratory (B6;129P2-Sv2a^tm1SudSv2b^tm1Sud/J) and were backcrossed to C57 background for at least 5 generations prior to use. Mice were housed under specific-pathogen-free conditions. Sex-matched littermates between 6 and 16 weeks of age were used for experiments if not otherwise indicated. C57BL/6 mice were purchased from the Jackson Laboratory or the UCLA animal core facility. C57BL/6 mice were randomly assigned to treatment groups after matching for sex and age. […] For the IL-33 or papain-induced lung inflammation models, mice were treated intranasally on days 1, 2, and 3. Bone marrows and lungs were harvested, processed, and analyzed on day 4. The inventors were not blinded to allocation during the studies. All studies were conducted in accordance with animal protocols approved by the Animal Research Committee of the University of California Los Angeles.
(§4) Protein extracts from cells or tissues were prepared using whole protein lysis buffer (WL buffer) containing 50 mM Tris (pH 8), 0.4M NaCl, 0.5% NP-40, 10% glycerol, 1 mM EDTA, 1 mM DTT, and 1 mM PMSF as described previously^39. To extract proteins from MEFs, cells were washed with PBS once and then lysed with WL buffer on ice for 30 min. […]

lung ILC2s [4] = assay: Papain-induced mouse lung inflammation model, flow cytometry of lung ILC2s; assay type: in vivo; conditions: papain 50 μg + LEV 17 mg/kg intranasal daily day 1, 2, 3; day 4; vs papain alone
Source text: as §3
(§5) Mice were euthanized and perfused with cold PBS. […]
(§6) Dead cells were routinely excluded with Zombie UV Fixable Viability Kit (BioLegend) or Fixable Aqua Dead Cell Stain (Thermo Fisher Scientific). […] Data were analyzed using the FlowJo software. […]

BM ILC2P = assay: Flow cytometry analysis of bone marrow ILC2P in LEV-treated mice; assay type: in vivo, mouse; conditions: LEV 17 mg/kg intranasal daily day 1, 2, 3; BM harvested day 4
Source text: as §3, §5, §6

lung ILC2s [5] = assay: Flow cytometry analysis of lung ILC2 responses in LEV-treated naive mice; assay type: in vivo, mouse; conditions: LEV 17 mg/kg intranasal daily day 1, 2, 3
Source text: as §3
Mice were euthanized and perfused with cold PBS. Lung lobes were diced into small pieces and incubated with 0.2 mg/mL collagenase P. 0.8 mg/mL Dispase II, 0.1 mg/mL DNase I in RPMI1640 containing 5% FBS for 1 hr at 37° C. before being mashed through […] cell strainers. Bone marrow cells were collected by flushing out the marrow from femurs and tibias using a syringe with PBS. Red blood cells were removed using RBC lysis buffer (Sigma-Aldrich, Cat #: R7757) according to the manufacturer's recommendations followed by 1×PBS wash. After saturating the Fc-receptors with CD16/CD32-blocking antibody (BioLegend), single-cell suspensions were incubated on ice with conjugated antibodies in PBS (Ca^2+ and Mg^2+-free).
Dead cells were routinely excluded with Zombie UV Fixable Viability Kit (BioLegend) or Fixable Aqua Dead Cell Stain (Thermo Fisher Scientific). Lineage-positive cells were excluded by staining for B220 (RA3-6B2), […] (145-2C11), TCRβ (H57-597), TCRγδ (eBioGL3), Ter119 (Ter119), NK1.1 (PK136), CD11b (M1/70), and CD11c (N418). […] Data were analyzed using the FlowJo software. […]

SV2A protein [6] = target: T1, SV2A protein; assay: Immunoblot analysis of SV2A protein in lungs and brain of intranasally treated mice; assay type: in vivo
Source text: as §3, §4

ST2L [7] = assay: Immunoblot analysis of ST2L expression in primary MEFs treated with IL-33; assay type: cell-based, mouse
Procedure: as §1, §2

Il13 and Il5 = assay: Q-PCR analysis of Il13 and Il5 gene induction in primary MEFs treated with IL-33; assay type: cell-based, mouse; conditions: WT MEFs
Procedure: as §1
Quantitative real time polymerase chain reaction (Q-PCR) analyses were performed as described^38. Briefly, cDNA prepared using the iScript cDNA Synthesis kit (Bio-Rad) were analyzed by Q-PCR using the CFX-96 Real-Time Detection System (Bio-Rad). The Q-PCR primer sequences of genes were: Sv2a forward—[…] (SEQ ID NO:2), Sv2a reverse […] (SEQ ID NO:3), St2l forward […] (SEQ ID NO:4), St2l reverse […] (SEQ ID NO:5), sSt2 forward—[…] (SEQ ID NO:6), sSt2 reverse […] (SEQ ID NO:7). Il1rap forward—[…] (SEQ ID NO:8), Il1rap reverse—[…] (SEQ ID NO:9), Il5 forward—[…] (SEQ ID NO:10), Il5 reverse—[…] (SEQ ID NO:11), Il13 forward—[…] (SEQ ID NO:12), Il13 reverse—[…] (SEQ ID NO:13), Hprt forward—[…] (SEQ ID NO:14), Hprt reverse—[…] (SEQ ID NO:15), Gapdh forward—[…] (SEQ ID NO:16), Gapdh reverse—[…] (SEQ ID NO:17).

Sv2a mRNA = assay: Q-PCR analysis of lung Sv2a gene expression in intranasally treated mice; assay type: in vivo, mouse; conditions: IL-33 100 ng intranasal, 4 hr
Source text: as §3, with “For the IL-33 or papain-induced lung inflammation models, mice were treated intranasally on days 1, 2, and 3. Bone marrows and lungs were harvested, processed, and analyzed on day 4.” left out
Quantitative real time polymerase chain reaction (Q-PCR) analyses were performed as described^38. Briefly, cDNA prepared using the iScript cDNA Synthesis kit (Bio-Rad) were analyzed by Q-PCR using the CFX-96 Real-Time Detection System (Bio-Rad). The Q-PCR primer sequences of genes were: Sv2a forward—[…] (SEQ ID NO:2), Sv2a reverse […] (SEQ ID NO:3), St2l forward […] (SEQ ID NO:4), St2l reverse […] (SEQ ID NO:5), sSt2 forward—[…] (SEQ ID NO:6), sSt2 reverse […] (SEQ ID NO:7). Il1rap forward—[…] (SEQ ID NO:8), Il1rap reverse—[…] (SEQ ID NO:9), Il5 forward—[…] (SEQ ID NO:10), Il5 reverse—[…] (SEQ ID NO:11), Il13 forward—[…] […]

T1 sequence (Q9JIS5 whole entry): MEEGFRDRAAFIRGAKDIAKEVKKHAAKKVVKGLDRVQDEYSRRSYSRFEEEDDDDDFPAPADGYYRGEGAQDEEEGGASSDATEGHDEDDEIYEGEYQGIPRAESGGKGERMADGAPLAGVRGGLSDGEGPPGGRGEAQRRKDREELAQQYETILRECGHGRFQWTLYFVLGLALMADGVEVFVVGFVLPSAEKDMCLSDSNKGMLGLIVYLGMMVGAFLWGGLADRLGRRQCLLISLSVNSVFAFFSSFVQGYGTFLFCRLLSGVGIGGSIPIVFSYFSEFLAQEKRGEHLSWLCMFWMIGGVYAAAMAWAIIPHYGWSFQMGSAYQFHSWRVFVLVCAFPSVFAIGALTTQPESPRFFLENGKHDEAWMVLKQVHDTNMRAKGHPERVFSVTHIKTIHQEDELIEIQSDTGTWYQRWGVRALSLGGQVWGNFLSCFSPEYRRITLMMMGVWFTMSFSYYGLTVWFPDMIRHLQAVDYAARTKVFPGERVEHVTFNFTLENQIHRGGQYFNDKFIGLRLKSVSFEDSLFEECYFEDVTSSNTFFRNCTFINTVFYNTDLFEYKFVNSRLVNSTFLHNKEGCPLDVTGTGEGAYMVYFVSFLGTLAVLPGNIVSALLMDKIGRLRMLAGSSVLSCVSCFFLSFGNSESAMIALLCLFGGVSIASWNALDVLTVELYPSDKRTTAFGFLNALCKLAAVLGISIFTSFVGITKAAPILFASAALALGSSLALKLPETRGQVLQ

## C[C@@H]1C[C@@H]([C@H](O)CC2CC(=O)NC(=O)C2)C(=O)[C@@H](C)C1 [CHX, cycloheximde]
ST2L [1]; Sv2a KO MEFs, 6 hr after CHX treatment
  ST2L expression (immunoblot): no longer detectable
ST2L [1]; Sv2a KO MEFs, CHX 20 hr
  reduction of percentage of ST2+ cells (flow cytometry): more than 15 fold
ST2L [1]; Sv2a KO MEFs, CHX 20 hr (from 13.7% untreated)
  percentage of ST2+ cells after CHX: 0.78%
ST2L [1]; WT MEFs, 6 hr after CHX treatment
  ST2L expression (immunoblot): only modestly reduced
ST2L [1]; WT MEFs, CHX for 20 hr
  ST2L expression (immunoblot): remained to be detectable
ST2L [1]; WT primary MEFs, CHX 20 hr
  reduction of ST2+ cells (flow cytometry): about 3 fold
ST2L [1]; WT primary MEFs, CHX 20 hr (from 20.5% untreated)
  percentage of ST2+ cells after CHX: 6.35%

## CC[C@@H](C(N)=O)N1CCCC1=O [LEV, (S)-(−)-α-ethyl-2-oxo-1-pyrrolidine acetamide]
SV2A protein [2]; 0.2 μg WT brain extract, 10 mM LEV
  degradation of brain SV2A protein with excess lung protein extracts from Sv2a-/- pup: completely degraded
SV2A protein [2]; 0.2 μg WT brain extract, LEV 0.1 mM, 0.5 mM, 10 mM
  degradation of brain SV2A protein with excess brain protein extracts from Sv2a-/- pup: did not cause the degradation
SV2A protein [2]; brain extracts, LEV, similar conditions (37° C.)
  SV2A protein in brain extracts: failed to reduce
ST2L [3]
  ST2L protein in the lungs (immunoblot): clear suppression; also recorded: reduced
Lung ILC2s [4]
  frequency of lung ILC2s, papain-induced ILC2 responses: reducing
  production of IL-5 and IL-13 by lung ILC2s, papain-induced: blocking
BM ILC2P
  development of BM ILC2P: suppressed
Lung ILC2s [5]; day 4
  populations of lung ILC2 cells producing IL-13 and IL-5: suppressed
Lung ILC2s [5]; lungs harvested day 4
  reduction of the cell numbers of lung ILC2s: about 50%
  reduction of the frequency of lung ILC2s: about 50%
SV2A protein [6]; LEV 17 mg/kg intranasal, C57/BL6 mice
  SV2A protein in the brain (immunoblot): did not reduce

B1: IL-33: alarmin cytokine that signals through its receptor ST2; used as stimulus (R&D) (protein, UniProt O95760 1-270, looked up)
Interleukin-33: MKPKMKYSTNKISTAKWKNTASKALCFKLGKSQQKAKEVCPMYFMKLRSGLMIKKEACYFRRETTKRPSLKTGRKHKRHLVLAACQQQSTVECFAFGISGVQKYTRALHDSSITGISPITEYLASLSTYNDQSITFALEDESYEIYVEDLKKDEKKDKVLLSYYESQHPSNESGDGVDGKMLMVTLSPTKDFWLHANNKEHSVELHKCEKPLPDQAFFVLHNMHSNCVSFECKTDPGVFIGVKDNHLALIKVDSSENLCTENILFKLSET
ST2L [7]; Sv2a KO MEFs, IL-33 for 20 hr
  level of ST2L (immunoblot): dramatic reduction
ST2L [7]; WT MEFs, IL-33
  level of ST2L (immunoblot): not reduced
SV2A protein [6]; IL-33 100 ng intranasal, 4 hr
  SV2A protein in the lungs (immunoblot): reduction; also recorded: suppressed
Il13 and Il5
  IL33-triggered induction of Il13 and Il5 (Q-PCR): significantly increased
Sv2a mRNA
  levels of Sv2a mRNA in the lungs (Q-PCR): did not suppress
